# Reference: patent publication US20060069132A1, “Azolecarboxamide herbicides” (priority 2004, published 2006)
# How the values were obtained:
# barnyardgrass [1] = test: Test A pre-/postemergence herbicide test; type: in vivo, Echinochloa crus-galli
# How it was run: (§1)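 Greenhouse injury scoring (0–100, complete control = 100) at approximately ten days follows simultaneous pre- and postemergence application. Soil received a directed spray after seeding; seedlings of 2–10 cm at the one- to two-leaf stage were sprayed to runoff.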
# large crabgrass [2] = test: Test A pre-/postemergence herbicide test; type: in vivo, Digitaria sanguinalis
# How it was run: as §1
# giant foxtail [3] = test: Test A pre-/postemergence herbicide test; type: in vivo, Setaria faberi
# How it was run: as §1
# morningglory [4] = test: Test A pre-/postemergence herbicide test; type: in vivo, Ipomoea spp.
# How it was run: as §1
# redroot pigweed = test: Test A pre-/postemergence herbicide test; type: in vivo, Amaranthus retroflexus
# How it was run: as §1
# velvetleaf [5] = test: Test A pre-/postemergence herbicide test; type: in vivo, Abutilon theophrasti
# How it was run: as §1
# barnyardgrass [6] = test: Test B pre-/postemergence herbicide test; type: in vivo, Echinochloa crus-galli; details: for Barnyardgrass plant response rating: postemergence, visual rating, scale 0 (no effect) to 100 (complete control)
# How it was run: (§2)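 Seeds were planted and treated preemergence with compounds formulated in a non-phytotoxic solvent mixture containing surfactant, while plants at the 1- to 4-leaf stage (2 to 18 cm) received postemergence sprays. Flooded paddy plants were grown to the 2-leaf stage. After 13 to 15 days in a greenhouse, injury was visually rated 0–100 against untreated controls.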
# Surinam grass = test: Test B pre-/postemergence herbicide test; type: in vivo, Urochloa decumbens; details: for Surinam Grass plant response rating: postemergence, visual rating, scale 0 (no effect) to 100 (complete control)
# How it was run: (§3)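 Response was scored visually 13 to 15 days after treatment against untreated greenhouse controls, 0 meaning no effect and 100 complete control. Formulations (solvent mixture plus surfactant) went onto soil after planting, onto foliage of 1- to 4-leaf plants, and onto 2-leaf plants in a flooded paddy set including rice and barnyardgrass.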
# cocklebur = test: Test B pre-/postemergence herbicide test; type: in vivo, Xanthium strumarium; details: for Cocklebur plant response rating: postemergence, visual rating, scale 0 (no effect) to 100 (complete control)
# How it was run: as §2
# corn = test: Test B pre-/postemergence herbicide test; type: in vivo, Zea mays; details: for Corn plant response rating: postemergence, visual rating, scale 0 (no effect) to 100 (complete control)
# How it was run: as §3
# large crabgrass [7] = test: Test B pre-/postemergence herbicide test; type: in vivo, Digitaria sanguinalis; details: for Crabgrass, Large plant response rating: postemergence, visual rating, scale 0 (no effect) to 100 (complete control)
# How it was run: as §3
# giant foxtail [8] = test: Test B pre-/postemergence herbicide test; type: in vivo, Setaria faberi; details: for Foxtail, Giant plant response rating: postemergence, visual rating, scale 0 (no effect) to 100 (complete control)
# How it was run: as §3
# lambsquarters = test: Test B pre-/postemergence herbicide test; type: in vivo, Chenopodium album; details: for Lambsquarters plant response rating: postemergence, visual rating, scale 0 (no effect) to 100 (complete control)
# How it was run: as §3
# morningglory [9] = test: Test B pre-/postemergence herbicide test; type: in vivo, Ipomoea coccinea; details: for Morningglory plant response rating: postemergence, visual rating, scale 0 (no effect) to 100 (complete control)
# How it was run: as §2
# pigweed = test: Test B pre-/postemergence herbicide test; type: in vivo, Amaranthus retroflexus; details: for Pigweed plant response rating: postemergence, visual rating, scale 0 (no effect) to 100 (complete control)
# How it was run: as §3
# rice [10] = test: Test B pre-/postemergence herbicide test; type: in vivo, Oryza sativa; details: preemergence
# How it was run: as §3
# velvetleaf [11] = test: Test B pre-/postemergence herbicide test; type: in vivo, Abutilon theophrasti; details: for Velvetleaf plant response rating: postemergence, visual rating, scale 0 (no effect) to 100 (complete control)
# How it was run: as §3
# blackgrass = test: Test B postemergence herbicide test; type: in vivo, Alopecurus myosuroides; details: postemergence, visual rating, scale 0 (no effect) to 100 (complete control)
# How it was run: (§4)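 Postemergence plants were sprayed with formulated test chemicals at 2 to 18 cm height (1- to 4-leaf stage); paddy species were grown to the 2-leaf stage. After 13 to 15 days in a greenhouse, injury was rated visually against untreated controls on a 0–100 scale (0 = no effect, 100 = complete control).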
# wheat = test: Test B postemergence herbicide test; type: in vivo, Triticum aestivum; design: key to Wheat plant response rating: 0 = no effect, 100 = complete control; details: postemergence, visual rating, scale 0 (no effect) to 100 (complete control)
# How it was run: (§5)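 Read-out: visual comparison with controls, scored 0 to 100, where 100 means complete control and 0 no effect. Formulated chemicals were applied postemergence to plants 2–18 cm tall (1- to 4-leaf), or to flooded-paddy plants at the 2-leaf stage, then held 13 to 15 days under glass.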
# wild oat = test: Test B postemergence herbicide test; type: in vivo, Avena fatua; details: postemergence, visual rating, scale 0 (no effect) to 100 (complete control)
# How it was run: as §5
# rice [12] = test: Test B flooded paddy test; type: in vivo, Oryza sativa; details: 1000 g ai/ha, visual rating, scale 0 to 100 (0 no effect, 100 complete control), 13 to 15 days
# How it was run: as §4
# [13] = system: small flower umbrella sedge; test: Test B flooded paddy test; type: in vivo, Cyperus difformis; details: 1000 g ai/ha, visual rating, scale 0 to 100 (0 no effect, 100 complete control), 13 to 15 days
# How it was run: as §4
# ducksalad = test: Test B flooded paddy test; type: in vivo, Heteranthera limosa; details: 1000 g ai/ha, visual rating, scale 0 to 100 (0 no effect, 100 complete control), 13 to 15 days
# How it was run: as §4
# barnyardgrass [14] = test: Test B flooded paddy test; type: in vivo, Echinochloa crus-galli; details: 1000 g ai/ha, visual rating, scale 0 to 100 (0 no effect, 100 complete control), 13 to 15 days
# How it was run: as §4
# [15] = Postemergence, 500 g ai/ha, 0 to 100 scale, 0 no effect, 100 complete control
# [16] = Postemergence, 2000 g ai/ha, 0 to 100 scale, 0 no effect, 100 complete control
# [17] = Preemergence, 2000 g ai/ha, visual rating, 0 to 100 scale (0 no effect, 100 complete control)
# [18] = preemergence, 500 g ai/ha, visual injury, 0 to 100 scale (0 no effect, 100 complete control)
# [19] = 125 g ai/ha, 0 = no effect, 100 = complete control, preemergence
# [20] = 500 g ai/ha, visual rating 0-100, 0 no effect, 100 complete control, preemergence
smiles,measurement,setting,value
Cc1nn(C(C)(C)C)cc1C(=O)Nc1cccc(OC(C)C)c1 [Compound 189],Barnyardgrass plant response rating,barnyardgrass [1]; [15],0
same,"Plant response rating, Barnyardgrass",barnyardgrass [1]; [16],10
same,Barnyardgrass plant response rating,barnyardgrass [1]; [17],65
same,Barnyardgrass plant response rating,barnyardgrass [1]; [18],35
same,"Crabgrass, Large plant response rating",large crabgrass [2]; [15],10
same,"Plant response rating, Crabgrass, Large",large crabgrass [2]; [16],10
same,"Crabgrass, Large plant response rating",large crabgrass [2]; [17],75
same,"Crabgrass, Large plant response rating",large crabgrass [2]; [18],55
same,"Foxtail, Giant plant response rating",giant foxtail [3]; [15],0
same,"Plant response rating, Foxtail, Giant",giant foxtail [3]; [16],0
same,"Foxtail, Giant plant response rating",giant foxtail [3]; [17],20
same,"Foxtail, Giant plant response rating",giant foxtail [3]; [18],5
same,Morningglory plant response rating,morningglory [4]; [15],10
same,"Plant response rating, Morningglory",morningglory [4]; [16],10
same,Morningglory plant response rating,morningglory [4]; [17],30
same,Morningglory plant response rating,morningglory [4]; [18],15
same,Pigweed plant response rating,redroot pigweed; [15],30
same,"Plant response rating, Pigweed",redroot pigweed; [16],45
same,Pigweed plant response rating,redroot pigweed; [17],40
same,Pigweed plant response rating,redroot pigweed; [18],25
same,Velvetleaf plant response rating,velvetleaf [5]; [15],5
same,"Plant response rating, Velvetleaf",velvetleaf [5]; [16],5
same,Velvetleaf plant response rating,velvetleaf [5]; [17],25
same,Velvetleaf plant response rating,velvetleaf [5]; [18],10
same,Barnyardgrass plant response rating (0 to 100 scale),barnyardgrass [6]; [19],0
same,"Plant response rating, Barnyardgrass",barnyardgrass [6]; [20],30
same,Barnyardgrass plant response rating,barnyardgrass [6]; 125 g ai/ha,0
same,Barnyardgrass plant response rating,barnyardgrass [6]; 500 g ai/ha,10
same,Surinam Grass plant response rating (0 to 100 scale),Surinam grass; [19],0
same,"Plant response rating, Surinam Grass",Surinam grass; [20],20
same,Surinam Grass plant response rating,Surinam grass; 125 g ai/ha,10
same,Surinam Grass plant response rating,Surinam grass; 500 g ai/ha,20
same,Cocklebur plant response rating (0 to 100 scale),cocklebur; [19],0
same,"Plant response rating, Cocklebur",cocklebur; [20],0
same,Cocklebur plant response rating,cocklebur; 125 g ai/ha,0
same,Cocklebur plant response rating,cocklebur; 500 g ai/ha,10
same,Corn plant response rating (0 to 100 scale),corn; [19],0
same,"Plant response rating, Corn",corn; [20],0
same,Corn plant response rating,corn; 125 g ai/ha,10
same,Corn plant response rating,corn; 500 g ai/ha,10
same,"Crabgrass, Large plant response rating (0 to 100 scale)",large crabgrass [7]; [19],30
same,"Plant response rating, Crabgrass, Large",large crabgrass [7]; [20],60
same,"Crabgrass, Large plant response rating",large crabgrass [7]; 125 g ai/ha,10
same,"Crabgrass, Large plant response rating",large crabgrass [7]; 500 g ai/ha,20
same,"Foxtail, Giant plant response rating (0 to 100 scale)",giant foxtail [8]; [19],0
same,"Plant response rating, Foxtail, Giant",giant foxtail [8]; [20],10
same,"Foxtail, Giant plant response rating",giant foxtail [8]; 125 g ai/ha,0
same,"Foxtail, Giant plant response rating",giant foxtail [8]; 500 g ai/ha,10
same,Lambsquarters plant response rating (0 to 100 scale),lambsquarters; [19],0
same,"Plant response rating, Lambsquarters",lambsquarters; [20],30
same,Lambsquarters plant response rating,lambsquarters; 125 g ai/ha,50
same,Lambsquarters plant response rating,lambsquarters; 500 g ai/ha,50
same,"Plant response rating, Morningglory",morningglory [9]; [20],20
same,Morningglory plant response rating,morningglory [9]; 125 g ai/ha,80
same,Morningglory plant response rating,morningglory [9]; 500 g ai/ha,90
same,Pigweed plant response rating (0 to 100 scale),pigweed; [19],90
same,"Plant response rating, Pigweed",pigweed; [20],100
same,Pigweed plant response rating,pigweed; 125 g ai/ha,30
same,Pigweed plant response rating,pigweed; 500 g ai/ha,60
same,Rice plant response rating (0 to 100 scale),"rice [10]; 125 g ai/ha, 0 = no effect, 100 = complete control",0
same,"Plant response rating, Rice","rice [10]; 500 g ai/ha, visual rating 0-100, 0 no effect, 100 complete control",50
same,Velvetleaf plant response rating (0 to 100 scale),velvetleaf [11]; [19],0
same,"Plant response rating, Velvetleaf",velvetleaf [11]; [20],20
same,Velvetleaf plant response rating,velvetleaf [11]; 125 g ai/ha,20
same,Velvetleaf plant response rating,velvetleaf [11]; 500 g ai/ha,20
same,Blackgrass plant response rating,blackgrass; 125 g ai/ha,0
same,Blackgrass plant response rating,blackgrass; 500 g ai/ha,0
same,Wheat plant response rating,wheat; 125 g ai/ha,0
same,Wheat plant response rating,wheat; 500 g ai/ha,0
same,"Oat, Wild plant response rating",wild oat; 125 g ai/ha,10
same,"Oat, Wild plant response rating",wild oat; 500 g ai/ha,10
same,Rice plant response rating,rice [12],40
same,"Sedge, Umbrella plant response rating",[13],70
same,Ducksalad plant response rating,ducksalad,70
same,Barnyardgrass plant response rating,barnyardgrass [14],60
